Results taken from US20020051978A1, “Methods and compositions for the identification, assessment, prevention and therapy of human cancers” (priority 2000, published 2002).
Where two headings read alike, the source gives them in different places.

Columns and labels:
[1] = system: 60 cancer cell lines (NCI 60 cancer cell line series); test: NCI-DTP in vitro cancer screen, sulforhodamine B (SRB) growth inhibition, 48 hour exposure; format: cell-based, human; set-up: key to sensitivity class Ovarian OVCAR-8 CL6005 / sensitivity class Ovarian SK-OV-3 CL6011 / sensitivity class Prostate DU-145 CL11003 / sensitivity class NSCLC NCI-H522 CL1003 / sensitivity class Ovarian IGROV1 CL6010 / sensitivity class Ovarian OVCAR-4 CL6002 / sensitivity class Prostate PC-3(I) CL11001 / sensitivity class Renal A498 CL9013 / sensitivity class Renal SN12C CL9008: sensitivity class: 1 = Low, 2 = Medium, 3 = High
Procedure, shortened: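 Sixty NCI-DTP cancer lines plated at line-specific densities, dosed on day 1 in duplicate with 5 concentrations at ten-fold intervals. After 48 h exposure, cell mass read by SRB staining; GI50 (50% growth inhibition) taken from dose-response curves and expressed as -log GI50.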

[2] = system: 60 cancer cell lines (NCI 60 cancer cell line series); settings: cited from earlier work

## Sc1ncnc2nc[nH]c12 [6-mercaptopurine]
[1]; Breast BT-549 (CL5013)
  classification of cell line as Low(1), Medium(2) or High(3) sensitivity to compound: 1
[1]; Breast HS-578T CL5006
  classification of cell line as Low(1), Medium(2) or High(3) sensitivity to compound: 1
[1]; Breast MCF7(I) (CL5001)
  classification of cell line as Low(1), Medium(2) or High(3) sensitivity to compound: 2
[1]; Breast MCF7/ADRr (CL5002)
  classification of cell line as Low(1), Medium(2) or High(3) sensitivity to compound: 2
[1]; Breast MDA-MB-231 CL5005
  classification of cell line as Low(1), Medium(2) or High(3) sensitivity to compound: 1
[1]; Breast MDA-MB-435 (CL5011)
  classification of cell line as Low(1), Medium(2) or High(3) sensitivity to compound: 2
[1]; Breast MDA-N CL5012
  classification of cell line as Low(1), Medium(2) or High(3) sensitivity to compound: 2
[1]; Breast T-47D (CL5014)
  classification of cell line as Low(1), Medium(2) or High(3) sensitivity to compound: 2
[1]; CNS SF-268 CL12014
  classification of cell line as Low(1), Medium(2) or High(3) sensitivity to compound: 2
[1]; CNS SF-295 CL12015
  classification of cell line as Low(1), Medium(2) or High(3) sensitivity to compound: 2
[1]; CNS SF-539 CL12016
  classification of cell line as Low(1), Medium(2) or High(3) sensitivity to compound: 2
[1]; CNS SNB-19 (CL12002)
  classification of cell line as Low(1), Medium(2) or High(3) sensitivity to compound: 1
[1]; CNS SNB-75(I) CL12005
  classification of cell line as Low(1), Medium(2) or High(3) sensitivity to compound: 2
[1]; CNS U251(I) CL12009
  classification of cell line as Low(1), Medium(2) or High(3) sensitivity to compound: 2
[1]; Colon COLO-250 CL4010
  classification of cell line as Low(1), Medium(2) or High(3) sensitivity to compound: 2
[1]; Colon HCC-2998 (CL4002)
  classification of cell line as Low(1), Medium(2) or High(3) sensitivity to compound: 2
[1]; Colon HCT-15 CL4015
  classification of cell line as Low(1), Medium(2) or High(3) sensitivity to compound: 2
[1]; Colon HCT-116 (CL4003)
  classification of cell line as Low(1), Medium(2) or High(3) sensitivity to compound: 2
[1]; Colon HT29(I) CL4001
  classification of cell line as Low(1), Medium(2) or High(3) sensitivity to compound: 2
[1]; Colon KM12 (CL4017)
  classification of cell line as Low(1), Medium(2) or High(3) sensitivity to compound: 2
[1]; Colon SW-620 (CL4009)
  classification of cell line as Low(1), Medium(2) or High(3) sensitivity to compound: 2
[1]; Leukemia CCRF-CEM(I) (CL7003)
  classification of cell line as Low(1), Medium(2) or High(3) sensitivity to compound: 3
[1]; Leukemia HL-60(I) (CL7008)
  classification of cell line as Low(1), Medium(2) or High(3) sensitivity to compound: 2
[1]; Leukemia K562(I) CL7005
  classification of cell line as Low(1), Medium(2) or High(3) sensitivity to compound: 3
[1]; Leukemia MOLT-4 (CL7006)
  classification of cell line as Low(1), Medium(2) or High(3) sensitivity to compound: 2
[1]; Leukemia RPMI-8226(I) (CL7010)
  classification of cell line as Low(1), Medium(2) or High(3) sensitivity to compound: 2
[1]; Leukemia SR CL7019
  classification of cell line as Low(1), Medium(2) or High(3) sensitivity to compound: 3
[1]; Melanoma LOX IMVI CL10001
  classification of cell line as Low(1), Medium(2) or High(3) sensitivity to compound: 3
[1]; Melanoma M14 (CL10014)
  classification of cell line as Low(1), Medium(2) or High(3) sensitivity to compound: 3
[1]; Melanoma MALME-3M CL10002
  classification of cell line as Low(1), Medium(2) or High(3) sensitivity to compound: 2
[1]; Melanoma SK-MEL-2 (CL10005)
  classification of cell line as Low(1), Medium(2) or High(3) sensitivity to compound: 2
[1]; Melanoma SK-MEL-5 (CL10007)
  classification of cell line as Low(1), Medium(2) or High(3) sensitivity to compound: 2
[1]; Melanoma SK-MEL-28 (CL10008)
  classification of cell line as Low(1), Medium(2) or High(3) sensitivity to compound: 1
[1]; Melanoma UACC-62 (CL10020)
  classification of cell line as Low(1), Medium(2) or High(3) sensitivity to compound: 2
[1]; Melanoma UACC-257 (CL10021)
  classification of cell line as Low(1), Medium(2) or High(3) sensitivity to compound: 1
[1]; NSCLC A549/ATCC (CL1004)
  classification of cell line as Low(1), Medium(2) or High(3) sensitivity to compound: 1
[1]; NSCLC EKVX (CL1008)
  classification of cell line as Low(1), Medium(2) or High(3) sensitivity to compound: 1
[1]; NSCLC HOP-62 (CL1026)
  classification of cell line as Low(1), Medium(2) or High(3) sensitivity to compound: 2
[1]; NSCLC HOP-92 (CL1029)
  classification of cell line as Low(1), Medium(2) or High(3) sensitivity to compound: 2
[1]; NSCLC NCI-H226 CL1013
  classification of cell line as Low(1), Medium(2) or High(3) sensitivity to compound: 1
[1]; cell line NSCLC NCI-H23(I), CL1001
  sensitivity class NSCLC NCI-H23(I) CL1001: 2
[1]; cell line NSCLC NCI-H332M, CL1017
  sensitivity class NSCLC NCI-H332M CL1017: 2
[1]; cell line NSCLC NCI-H460, CL1021
  sensitivity class NSCLC NCI-H460 CL1021: 2
[1]; cell line NSCLC NCI-H522, CL1003
  sensitivity class NSCLC NCI-H522 CL1003: 2
[1]; cell line Ovarian IGROV1, CL6010
  sensitivity class Ovarian IGROV1 CL6010: 2
[1]; cell line Ovarian OVCAR-3, CL6001
  sensitivity class Ovarian OVCAR-3 CL6001: 3
[1]; cell line Ovarian OVCAR-4, CL6002
  sensitivity class Ovarian OVCAR-4 CL6002: 2
[1]; cell line Ovarian OVCAR-5, CL6003
  sensitivity class Ovarian OVCAR-5 CL6003: 2
[1]; cell line Ovarian OVCAR-8, CL6005
  sensitivity class Ovarian OVCAR-8 CL6005: 2
[1]; cell line Ovarian SK-OV-3, CL6011
  sensitivity class Ovarian SK-OV-3 CL6011: 3
[1]; cell line Prostate DU-145, CL11003
  sensitivity class Prostate DU-145 CL11003: 2
[1]; cell line Prostate PC-3(I), CL11001
  sensitivity class Prostate PC-3(I) CL11001: 2
[1]; cell line Renal 786-O, CL9018
  sensitivity class Renal 786-O CL9018: 2
[1]; cell line Renal A498, CL9013
  sensitivity class Renal A498 CL9013: 1
[1]; cell line Renal ACHN, CL9023
  sensitivity class Renal ACHN CL9023: 2
[1]; cell line Renal CAKI-1, CL9015
  sensitivity class Renal CAKI-1 CL9015: 2
[1]; cell line Renal RXF-393, CL9016
  sensitivity class Renal RXF-393 CL9016: 1
[1]; cell line Renal SN12C, CL9008
  sensitivity class Renal SN12C CL9008: 1
[1]; cell line Renal TK10, CL9024
  sensitivity class Renal TK10 CL9024: 2
[1]; cell line Renal UO-31, CL9004
  sensitivity class Renal UO-31 CL9004: 2
[2]; Breast BT-549 (CL5013)
  -Log (GI50): 3.9
[2]; Breast HS-578T CL5006
  -Log (GI50): 4.8
[2]; Breast MCF7(I) (CL5001)
  -Log (GI50): 5.8
[2]; Breast MCF7/ADRr (CL5002)
  -Log (GI50): 5.5
[2]; Breast MDA-MB-231 CL5005
  -Log (GI50): 4.7
[2]; Breast MDA-MB-435 (CL5011)
  -Log (GI50): 5.9
[2]; Breast MDA-N CL5012
  -Log (GI50): 5.8
[2]; Breast T-47D (CL5014)
  -Log (GI50): 5.4
[2]; CNS SF-268 CL12014
  -Log (GI50): 5.4
[2]; CNS SF-295 CL12015
  -Log (GI50): 5.3
[2]; CNS SF-539 CL12016
  -Log (GI50): 5.6
[2]; CNS SNB-19 (CL12002)
  -Log (GI50): 3.9
[2]; CNS SNB-75(I) CL12005
  -Log (GI50): 5.1
[2]; CNS U251(I) CL12009
  -Log (GI50): 4.9
[2]; Colon COLO-250 CL4010
  -Log (GI50): 5.3
[2]; Colon HCC-2998 (CL4002)
  -Log (GI50): 5.5
[2]; Colon HCT-15 CL4015
  -Log (GI50): 5.4
[2]; Colon HCT-116 (CL4003)
  -Log (GI50): 5.6
[2]; Colon HT29(I) CL4001
  -Log (GI50): 5.4
[2]; Colon KM12 (CL4017)
  -Log (GI50): 5.1
[2]; Colon SW-620 (CL4009)
  -Log (GI50): 5.2
[2]; Leukemia CCRF-CEM(I) (CL7003)
  -Log (GI50): 5.9
[2]; Leukemia HL-60(I) (CL7008)
  -Log (GI50): 5.6
[2]; Leukemia K562(I) CL7005
  -Log (GI50): 6.5
[2]; Leukemia MOLT-4 (CL7006)
  -Log (GI50): 5.8
[2]; Leukemia RPMI-8226(I) (CL7010)
  -Log (GI50): 5.8
[2]; Leukemia SR CL7019
  -Log (GI50): 5.9
[2]; Melanoma LOX IMVI CL10001
  -Log (GI50): 6.4
[2]; Melanoma M14 (CL10014)
  -Log (GI50): 6.2
[2]; Melanoma MALME-3M CL10002
  -Log (GI50): 5.4
[2]; Melanoma SK-MEL-2 (CL10005)
  -Log (GI50): 5.2
[2]; Melanoma SK-MEL-5 (CL10007)
  -Log (GI50): 5.1
[2]; Melanoma SK-MEL-28 (CL10008)
  -Log (GI50): 3.5
[2]; Melanoma UACC-62 (CL10020)
  -Log (GI50): 5.8
[2]; Melanoma UACC-257 (CL10021)
  -Log (GI50): 4.8
[2]; NCSLC NCI-H522 CL1003
  -Log (GI50): 5.8
[2]; NSCLC A549/ATCC (CL1004)
  -Log (GI50): 4.6
[2]; NSCLC EKVX (CL1008)
  -Log (GI50): 3.6
[2]; NSCLC HOP-62 (CL1026)
  -Log (GI50): 5.7
[2]; NSCLC HOP-92 (CL1029)
  -Log (GI50): 5.6
[2]; NSCLC NCI-H23(I) CL1001
  -Log (GI50): 5.4
[2]; NSCLC NCI-H226 CL1013
  -Log (GI50): 4.3
[2]; NSCLC NCI-H332M CL1017
  -Log (GI50): 5.1
[2]; NSCLC NCI-H460 CL1021
  -Log (GI50): 5.3
[2]; Ovarian IGROV1 CL6010
  -Log (GI50): 5.1
[2]; Ovarian OVCAR-3 CL6001
  -Log (GI50): 6.1
[2]; Ovarian OVCAR-4 CL6002
  -Log (GI50): 5.1
[2]; Ovarian OVCAR-5 CL6003
  -Log (GI50): 5.1
[2]; Ovarian OVCAR-8 CL6005
  -Log (GI50): 5.6
[2]; Ovarian SK-OV-3 CL6011
  -Log (GI50): 6.0
[2]; Prostate DU-145 CL11003
  -Log (GI50): 5.6
[2]; Prostate PC-3(I) CL11001
  -Log (GI50): 5.4
[2]; Renal 786-O CL9018
  -Log (GI50): 5.7
[2]; Renal A498 CL9013
  -Log (GI50): 4.2
[2]; Renal ACHN CL9023
  -Log (GI50): 5.2
[2]; Renal CAKI-1 CL9015
  -Log (GI50): 5.6
[2]; Renal RXF-393 CL9016
  -Log (GI50): 4.5
[2]; Renal SN12C CL9008
  -Log (GI50): 4.6
[2]; Renal TK10 CL9024
  -Log (GI50): 5.7
[2]; Renal UO-31 CL9004
  -Log (GI50): 5.2
